Measurements published in ChEMBL document CHEMBL1140860, “Synthesis and evaluation of dihydroartemisinin and dihydroartemisitene acetal dimers showing anticancer and antiprotozoal activity” (Bioorg Med Chem, 2009).
pIC50: −log10 of the molar value.

Assays:
OVCAR-8 = experiment: Growth inhibition of human OVCAR8 cells after 48 hrs by sulforhodamine B assay; assay type: functional; conditions: OVCAR-8, 48 h
CCRF-CEM = experiment: Growth inhibition of human CCRF-CEM cells after 48 hrs by sulforhodamine B assay; assay type: functional
MCF7 = experiment: Growth inhibition of human MCF7 cells after 48 hrs by sulforhodamine B assay; assay type: functional; conditions: MCF7, 48 h
NCI-H522 = experiment: Growth inhibition of human NCI-H522 cells after 48 hrs by sulforhodamine B assay; assay type: functional; conditions: NCI-H522, 48 h
SK-MEL-5 = experiment: Growth inhibition of human SK-MEL-5 cells after 48 hrs by sulforhodamine B assay; assay type: functional; conditions: SK-MEL-5, 48 h
NCI-H322M = experiment: Growth inhibition of human NCI-H322M cells after 48 hrs by sulforhodamine B assay; assay type: functional
HT-29 = experiment: Growth inhibition of human HT-29 cells after 48 hrs by sulforhodamine B assay; assay type: functional; conditions: HT-29, 48 h
[1] = Growth inhibition of human Hs 578T cells after 48 hrs by sulforhodamine B assay; assay type: functional
UACC-257 = experiment: Growth inhibition of human UACC257 cells after 48 hrs by sulforhodamine B assay; assay type: functional; conditions: UACC-257, 48 h
TK-10 = experiment: Growth inhibition of human TK10 cells after 48 hrs by sulforhodamine B assay; assay type: functional; conditions: TK-10, 48 h
NCI-H226 = experiment: Growth inhibition of human NCI-H226 cells after 48 hrs by sulforhodamine B assay; assay type: functional; conditions: NCI-H226, 48 h
NCI-H23 = experiment: Growth inhibition of human NCI-H23 cells after 48 hrs by sulforhodamine B assay; assay type: functional; conditions: NCI-H23, 48 h
MDA-MB-231 = experiment: Growth inhibition of human MDA-MB-231 cells after 48 hrs by sulforhodamine B assay; assay type: functional; conditions: MDA-MB-231, 48 h
M14 = experiment: Growth inhibition of human M14 cells after 48 hrs by sulforhodamine B assay; assay type: functional; conditions: M14, 48 h
EKVX = experiment: Growth inhibition of human EKVX cells after 48 hrs by sulforhodamine B assay; assay type: functional
SN12C = experiment: Growth inhibition of human SN12C cells after 48 hrs by sulforhodamine B assay; assay type: functional
OVCAR-3 = experiment: Growth inhibition of human OVCAR-3 cells after 48 hrs by sulforhodamine B assay; assay type: functional; conditions: OVCAR-3, 48 h
HCT-116 = experiment: Growth inhibition of human HCT116 cells after 48 hrs by sulforhodamine B assay; assay type: functional; conditions: HCT-116, 48 h
SNB-19 = experiment: Growth inhibition of human SNB19 cells after 48 hrs by sulforhodamine B assay; assay type: functional; conditions: SNB-19, 48 h
[2] = Growth inhibition of human […] cells after 48 hrs by sulforhodamine B assay; assay type: functional
HL-60 = experiment: Growth inhibition of human HL-60(TB) cells after 48 hrs by sulforhodamine B assay; assay type: functional; conditions: HL-60, 48 h
HCT-15 = experiment: Growth inhibition of human HCT15 cells after 48 hrs by sulforhodamine B assay; assay type: functional; conditions: HCT-15, 48 h
SF-268 = experiment: Growth inhibition of human SF268 cells after 48 hrs by sulforhodamine B assay; assay type: functional; conditions: SF-268, 48 h
IGROV-1 = experiment: Growth inhibition of human IGROV1 cells after 48 hrs by sulforhodamine B assay; assay type: functional; conditions: IGROV-1, 48 h
RXF 393 = experiment: Growth inhibition of human RXF393 cells after 48 hrs by sulforhodamine B assay; assay type: functional; conditions: RXF 393, 48 h
SK-MEL-2 = experiment: Growth inhibition of human SK-MEL-2 cells after 48 hrs by sulforhodamine B assay; assay type: functional; conditions: SK-MEL-2, 48 h
CAKI-1 = experiment: Growth inhibition of human Caki1 cells after 48 hrs by sulforhodamine B assay; assay type: functional; conditions: CAKI-1, 48 h
SK-MEL-28 = experiment: Growth inhibition of human SK-MEL-28 cells after 48 hrs by sulforhodamine B assay; assay type: functional; conditions: SK-MEL-28, 48 h
A549 = experiment: Growth inhibition of human A549 cells after 48 hrs by sulforhodamine B assay; assay type: functional; conditions: A549, 48 h
LOX IMVI = experiment: Growth inhibition of human LOXIMVI cells after 48 hrs by sulforhodamine B assay; assay type: functional
SW-620 = experiment: Growth inhibition of human SW620 cells after 48 hrs by sulforhodamine B assay; assay type: functional; conditions: SW-620, 48 h
SF-295 = experiment: Growth inhibition of human SF295 cells after 48 hrs by sulforhodamine B assay; assay type: functional; conditions: SF-295, 48 h
PC-3 = experiment: Growth inhibition of human PC3 cells after 48 hrs by sulforhodamine B assay; assay type: functional; conditions: PC-3, 48 h
SK-OV-3 = experiment: Growth inhibition of human SKOV3 cells after 48 hrs by sulforhodamine B assay; assay type: functional; conditions: SK-OV-3, 48 h
UACC-62 = experiment: Growth inhibition of human UACC62 cells after 48 hrs by sulforhodamine B assay; assay type: functional; conditions: UACC-62, 48 h
MDA-MB-435 = experiment: Growth inhibition of human MDA-MB-435 cells after 48 hrs by sulforhodamine B assay; assay type: functional; conditions: MDA-MB-435, 48 h
A498 = experiment: Growth inhibition of human A498 cells after 48 hrs by sulforhodamine B assay; assay type: functional; conditions: A498, 48 h
OVCAR-5 = experiment: Growth inhibition of human OVCAR5 cells after 48 hrs by sulforhodamine B assay; assay type: functional; conditions: OVCAR-5, 48 h
HOP-92 = experiment: Growth inhibition of human HOP92 cells after 48 hrs by sulforhodamine B assay; assay type: functional; conditions: HOP-92, 48 h
Plasmodium falciparum = experiment: Antimalarial activity after 72 hrs against chloroquine-sensitive Plasmodium falciparum D6 infected in erythrocytes by LDH assay; assay type: functional, organism-based; conditions: D6, 72 h
KM12 = experiment: Growth inhibition of human KM12 cells after 48 hrs by sulforhodamine B assay; assay type: functional; conditions: KM12, 48 h
NCI/ADR-RES = experiment: Growth inhibition of human NCI/ADR-RES cells after 48 hrs by sulforhodamine B assay; assay type: functional
K562 = experiment: Growth inhibition of human K562 cells after 48 hrs by sulforhodamine B assay; assay type: functional; conditions: K562, 48 h
COLO 205 = experiment: Growth inhibition of human COLO205 cells after 48 hrs by sulforhodamine B assay; assay type: functional; conditions: COLO 205, 48 h
SF-539 = experiment: Growth inhibition of human SF539 cells after 48 hrs by sulforhodamine B assay; assay type: functional; conditions: SF-539, 48 h
HCC 2998 = experiment: Growth inhibition of human HCC2998 cells after 48 hrs by sulforhodamine B assay; assay type: functional; conditions: HCC 2998, 48 h
DU-145 = experiment: Growth inhibition of human DU145 cells after 48 hrs by sulforhodamine B assay; assay type: functional; conditions: DU-145, 48 h
MDA-N = experiment: Growth inhibition of human MDA-N cells after 48 hrs by sulforhodamine B assay; assay type: functional
[3] = Selectivity index, ratio of TC50 for african green monkey (Cercopithecus aethiops) Vero cells to IC50 for chloroquine-resistant Plasmodium falciparum W2; assay type: toxicity, cell-based
SR = experiment: Growth inhibition of human SR cells after 48 hrs by sulforhodamine B assay; assay type: functional

Structure (SMILES): C[C@H]1[C@@H](OCC(CO[C@H]2O[C@@H]3O[C@@]4(C)CC[C@H]5[C@H](C)CC[C@@H]([C@H]2C)[C@@]35OO4)OC(=O)CCC(=O)O)O[C@@H]2O[C@@]3(C)CC[C@H]4[C@H](C)CC[C@@H]1[C@@]24OO3 (stereo not given in full)
- GI50 (OVCAR-8): 15 nM
- GI50 (CCRF-CEM): 78 nM
- GI50 (MCF7): < 10 nM
- GI50 (NCI-H522): 63 nM
- GI50 (SK-MEL-5): 147 nM
- GI50 (NCI-H322M): 10.2 µM
- GI50 (HT-29): < 10 nM
- GI50 [1]: 0.186 µM
- GI50 (UACC-257): 46 nM
- GI50 (TK-10): 211 nM
- GI50 (NCI-H226): 0.048 µM
- GI50 (NCI-H23): 10 nM
- GI50 (MDA-MB-231): 345 nM
- GI50 (M14): < 0.01 µM
- GI50 (EKVX): 470 nM
- GI50 (SN12C): 16 nM
- GI50 (OVCAR-3): 20 nM
- GI50 (HCT-116): < 10 nM
- GI50 (SNB-19): 10.1 µM
- GI50 [2]: < 10 nM
- GI50 (HL-60): 11 nM
- GI50 (HCT-15): < 10 nM
- GI50 (SF-268): 2.18 µM
- GI50 (IGROV-1): 11.1 µM
- GI50 (RXF 393): < 10 nM
- GI50 (SK-MEL-2): 5200 nM
- GI50 (CAKI-1): 44 nM
- GI50 (SK-MEL-28): 8.38 µM
- GI50 (A549): 69 nM
- GI50 (LOX IMVI): < 10 nM
- GI50 (SW-620): 29 nM
- GI50 (SF-295): 34 nM
- GI50 (PC-3): < 10 nM
- GI50 (SK-OV-3): 27.2 µM
- GI50 (UACC-62): 77 nM
- GI50 (MDA-MB-435): 13 nM
- GI50 (A498): 13.8 µM
- GI50 (OVCAR-5): < 10 nM
- GI50 (HOP-92): 121 nM
- pIC50 (Plasmodium falciparum): 5.85
- GI50 (KM12): < 10 nM
- GI50 (NCI/ADR-RES): 207 nM
- GI50 (K562): 230 nM
- GI50 (COLO 205): < 10 nM
- GI50 (SF-539): 616 nM

Structure (SMILES): C[C@H]1[C@H](OCCO[C@H]2O[C@@H]3O[C@@]4(C)CC[C@H]5[C@H](C)CC[C@@H]([C@H]2C)[C@@]35OO4)O[C@@H]2O[C@@]3(C)CC[C@H]4[C@H](C)CC[C@@H]1[C@@]24OO3
- GI50 (OVCAR-8): 34 nM
- GI50 (CCRF-CEM): 25 nM
- GI50 (MCF7): 28 nM
- GI50 (NCI-H522): 680 nM
- GI50 (SK-MEL-5): 34 nM
- GI50 (NCI-H322M): 7.9 µM
- GI50 (HCC 2998): 67 nM
- GI50 (HT-29): 38 nM
- GI50 [1]: 7.65 µM
- GI50 (UACC-257): 54 nM
- GI50 (TK-10): 64 nM
- GI50 (DU-145): 8.19 µM
- GI50 (NCI-H226): 9.54 µM
- GI50 (MDA-N): 61 nM
- GI50 (NCI-H23): 36 nM
- GI50 (MDA-MB-231): 534 nM
- GI50 (M14): 7.6 µM
- GI50 (EKVX): 40 nM
- GI50 (SN12C): 55 nM
- GI50 (OVCAR-3): 1280 nM
- GI50 (HCT-116): 30 nM
- GI50 (SNB-19): 8.26 µM
- GI50 [2]: < 8 nM
- GI50 (HL-60): 15 nM
- GI50 (HCT-15): 17 nM
- GI50 (SF-268): 7.54 µM
- GI50 (IGROV-1): 8.28 µM
- GI50 (RXF 393): 54 nM
- GI50 (SK-MEL-2): 212 nM
- GI50 (CAKI-1): 90 nM
- GI50 (SK-MEL-28): 0.727 µM
- selectivity ratio [3]: > 37
- GI50 (A549): 59 nM
- GI50 (LOX IMVI): 30 nM
- GI50 (SW-620): 25 nM
- GI50 (SF-295): 1100 nM
- GI50 (SR): 25 nM
- GI50 (PC-3): 22 nM
- GI50 (SK-OV-3): 17.9 µM
- GI50 (UACC-62): 72 nM
- GI50 (MDA-MB-435): 45 nM
- GI50 (A498): 8.11 µM
- GI50 (OVCAR-5): 59 nM
- GI50 (HOP-92): 52 nM
- pIC50 (Plasmodium falciparum): 4.50
- GI50 (KM12): 33 nM
- GI50 (NCI/ADR-RES): 55 nM
- GI50 (K562): 20 nM
- GI50 (COLO 205): 15 nM
- GI50 (SF-539): 63 nM
